# Test results: patent publication US20210069134A1 (priority 2019, published 2021)
# Entries after “also recorded” stand apart in the source; their conditions may differ.
# What was measured:
# Type in all cases: in vivo, rat
# Long Evans Hooded rats [1] = test: Elevated Plus Maze (EPM) test after developmental Pb^2+ exposure, acute i.p. drug; settings: for anxiolytic OTC ratio, sensitivity to drug / EPM track plot and group mean activity (10-min): 43 mg/kg i.p.
# [2] = test system: prelimbic (PrL), infralimbic (IL), orbital ventral frontal (OV), orbital ventro-lateral (OVL), and hippocampal (HP) brain regions; test: LC/MS GABA:Neurotransmitter and Taurine:Neurotransmitter ratios in brain sub-regions after the ASST; settings: male rats, OVL (all four brain regions), taurine co-treatment
# Protocol: Immediately following the ASST, rats were deeply anesthetized using Isoflurane, then sacrificed, and their brains were extracted in cold physiological buffered saline (PBS) pH 7.4 in under 2-min. The rat whole brains were then transferred into a coronal sectioning steel brain matrix for 175-300 g rodents (Stoelting, Inc. Wood Dale, Ill.). […] The collected brain regions were stored at −80° C. until ready for subsequent neurochemical assessments.
# The brain sub-regions were then manually homogenized with sterile glass homogenizers (i.e., total volume 3 mL) using a 10 mg/100 μL (1:10) dilution of 100% acetonitrile ([…]) (Sigma-Aldrich, St Louis, Mo.) as a miscible (i.e., fully dissolvable solution) with a dielectric constant to study the separation of chemicals by mass charge and polarity. Post homogenization, samples were sonicated for 30 sec with a pulse on:off time of 10 sec at an amplitude of 20%, then centrifuged at […] for 5-min at 4° C., and the supernatant collected and stored at −20° C. until ready for LC/MS. […] The mass/charge (m/z) values of neurotransmitters were monitored and peak heights were obtained to compare the amount of neurotransmitters within- and between-samples. The elution was performed with a flow rate of 0.2 mL/min and the neurotransmitters that were eluted from the column were detected in the positive ion mode. […]
# Long Evans Hooded rats [3] = test: Attention Set-Shift Test (ASST) after developmental Pb^2+ exposure with taurine co-treatment; settings: for Pb^2+-induced frontoexecutive dysfunctions (ASST task performance), overall: both sexes, 150 ppm Pb^2+ + 0.05% Taurine co-treatment; for errors-to-criterion (ETC), odor (OD) and digging medium (MD) simple discrimination training / trials-to-criterion (TTC), odor (OD) and digging medium (MD) simple discrimination training: vs Control and Perinatal; for rate-of-learning cumulative record across ASST stages: 150 ppm Pb^2+ + Taurine 0.05%
# [4] = female rats, 150 ppm Pb^2+ + 0.05% Taurine
# [5] = female rats, 150 ppm Pb^2+ + 0.05% Taurine in drinking water to PND 22
# [6] = female rats, 150 ppm Pb^2+ + 0.05% Taurine, most recovery at ED and ED-Rev
# [7] = male rats, 150 ppm Pb^2+ + 0.05% Taurine
# [8] = male rats, 150 ppm Pb^2+ + 0.05% Taurine in drinking water to PND 22
# [9] = male rats, 150 ppm Pb^2+ + 0.05% Taurine in drinking water to PND 22, listed as taurine
# [10] = male rats, 150 ppm Pb^2+ + 0.05% Taurine, listed as taurine
structure (smiles),measurement,setting,value
"NCCC(=O)O [TD-101, 3-aminopropanoic acid]","anxiolytic OTC ratio, sensitivity to drug",Long Evans Hooded rats [1]; control female rats,most sensitive
same,"anxiolytic OTC ratio, sensitivity to drug",Long Evans Hooded rats [1]; control male rats,most sensitive
NCS(=O)(=O)O [TD-102],"anxiolytic OTC ratio, sensitivity to drug","Long Evans Hooded rats [1]; Peri-22 1,000 ppm females",sensitive
same,"anxiolytic OTC ratio, sensitivity to drug","Long Evans Hooded rats [1]; Peri-22 1,000 ppm male rats",only sensitive
same,"anxiolytic OTC ratio, sensitivity to drug",Long Evans Hooded rats [1]; control male rats,most sensitive
"Nc1ccccc1S(=O)(=O)O [TD-103, 2-aminobenzenesulfonic acid]","anxiolytic OTC ratio, sensitivity to drug",Long Evans Hooded rats [1]; control female rats,most sensitive
"NCCS(=O)(=O)O [Taurine, 2-aminoethanesulfonic acid]",Pb^2+-induced anxiogenic response in the EPM,"Long Evans Hooded rats [1]; 43 mg/Kg i.p. 15-min prior to testing, PND 36-45, both genders",ameliorated in a gender-specific manner
same,EPM track plot and group mean activity (10-min),Long Evans Hooded rats [1]; Control (0 ppm) female rats,increased anxiolytic response
same,EPM track plot and group mean activity (10-min),Long Evans Hooded rats [1]; Control (0 ppm) male rats,increased anxiolytic response
same,Taurine:Dopamine levels,[2],elevated
same,"Pb^2+-induced frontoexecutive dysfunctions (ASST task performance), overall",Long Evans Hooded rats [3],recovered these frontoexecutive dysfunctions to levels equivalent to Control rats
same,"Pb^2+-induced frontoexecutive dysfunctions (ASST task performance), overall",Long Evans Hooded rats [3]; listed as taurine,effective in mitigating or at least reducing most; also recorded: sex-dependent recovery
same,"ETC, reacquisition learning",Long Evans Hooded rats [3]; [4],no differences
same,"TTC, reacquisition learning",Long Evans Hooded rats [3]; [4],no differences
same,"errors-to-criterion (ETC), OD and MD simple discrimination training",Long Evans Hooded rats [3]; [5],no differences
same,"trials-to-criterion (TTC), OD and MD simple discrimination training",Long Evans Hooded rats [3]; [5],no differences
same,"ASST performance, ETC",Long Evans Hooded rats [3]; [6],recovered these deficits to performance levels comparative to Control males; also recorded: recovered ASST performance to rates comparable to Control female rats
same,"ASST performance, TTC",Long Evans Hooded rats [3]; [6],recovered these deficits to performance levels comparative to Control males; also recorded: recovered ASST performance to rates comparable to Control female rats
same,"ETC, reacquisition learning (CD-Reacquisition and ID-Reacquisition)",Long Evans Hooded rats [3]; [7],fewer ETC errors
same,"TTC, reacquisition learning (CD-Reacquisition and ID-Reacquisition)",Long Evans Hooded rats [3]; [7],recovery from the TTC reacquisition learning impairment
same,"errors-to-criterion (ETC), odor (OD) and digging medium (MD) simple discrimination training",Long Evans Hooded rats [3]; [8],significant difficulty in learning
same,"trials-to-criterion (TTC), odor (OD) and digging medium (MD) simple discrimination training",Long Evans Hooded rats [3]; [8],significant difficulty in learning
same,"errors-to-criterion (ETC), odor (OD) and digging medium (MD) simple discrimination training",Long Evans Hooded rats [3]; [9],caused learning delays
same,"trials-to-criterion (TTC), odor (OD) and digging medium (MD) simple discrimination training",Long Evans Hooded rats [3]; [9],caused learning delays
same,"ETC, reacquisition learning (CD-Reacquisition and ID-Reacquisition)",Long Evans Hooded rats [3]; [10],recovered reacquisition learning performance deficits to rates comparable to Control male rats
same,"TTC, reacquisition learning (CD-Reacquisition and ID-Reacquisition)",Long Evans Hooded rats [3]; [10],recovered reacquisition learning performance deficits to rates comparable to Control male rats
same,"ASST performance, ETC","Long Evans Hooded rats [3]; male rats, 150 ppm Pb^2+ + 0.05% Taurine, most recovery at CD-Rev and ID",recovered these deficits to performance levels comparative to Control males; also recorded: recovered ASST performance to rates comparable to Control male rats
same,"ASST performance, TTC","Long Evans Hooded rats [3]; male rats, 150 ppm Pb^2+ + 0.05% Taurine, most recovery at CD-Rev, ID, ED",recovered these deficits to performance levels comparative to Control males; also recorded: recovered ASST performance to rates comparable to Control male rats
same,rate-of-learning cumulative record across ASST stages,Long Evans Hooded rats [3]; single representative female rat,quicker rate-of-learning with less sequential errors
same,rate-of-learning cumulative record across ASST stages,"Long Evans Hooded rats [3]; single representative female rat, listed as taurine",significant improvements
same,rate-of-learning cumulative record across ASST stages,Long Evans Hooded rats [3]; single representative male rat,quicker rate-of-learning with less sequential errors
same,rate-of-learning cumulative record across ASST stages,"Long Evans Hooded rats [3]; single representative male rat, listed as taurine",significant improvements
